In US20050090524A1, “Novel adamantane derivatives” (priority 2002, published 2005):
Counter-ions that a name gives are not always drawn.

Molecular target: T1, P2X7 receptor (Homo sapiens, UniProt Q99572)
T1 construct: 200 μl of a suspension of THP-1 cells; endogenous in cells; host or cells: THP-1 cells
T1 sequence (Q99572 1-595): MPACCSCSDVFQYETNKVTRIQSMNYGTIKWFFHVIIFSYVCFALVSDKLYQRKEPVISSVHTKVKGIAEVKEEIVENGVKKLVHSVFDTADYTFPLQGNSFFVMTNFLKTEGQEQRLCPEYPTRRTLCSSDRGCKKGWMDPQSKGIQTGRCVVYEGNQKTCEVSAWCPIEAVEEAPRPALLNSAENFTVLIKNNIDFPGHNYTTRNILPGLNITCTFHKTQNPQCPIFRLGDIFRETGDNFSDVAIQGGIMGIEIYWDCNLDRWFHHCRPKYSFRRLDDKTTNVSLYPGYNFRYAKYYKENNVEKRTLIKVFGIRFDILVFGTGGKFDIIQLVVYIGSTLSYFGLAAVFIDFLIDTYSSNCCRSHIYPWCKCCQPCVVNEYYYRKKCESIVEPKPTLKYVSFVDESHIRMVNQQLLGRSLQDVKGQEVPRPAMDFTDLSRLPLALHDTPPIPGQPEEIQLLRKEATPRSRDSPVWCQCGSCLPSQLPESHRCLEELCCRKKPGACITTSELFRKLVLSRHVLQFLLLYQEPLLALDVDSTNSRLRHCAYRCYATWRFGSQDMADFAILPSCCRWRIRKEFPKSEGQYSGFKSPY
Experiment: P2X7 receptor antagonist test: bbATP-induced ethidium bromide fluorescence in THP-1 cells
Type: cell-based
Details: bbATP agonist, 37° C. for one hour, negative logarithm of concentration reducing bbATP agonist activity by 50%
Excerpt: Certain compounds such as benzoylbenzoyl adenosine triphosphate (bbATP) are known to be agonists of the P2X7 receptor, effecting the formation of pores in the plasma membrane (Drug Development Research (1996), 37(3), p.126). Consequently, when the receptor is activated using bbATP in the presence of ethidium bromide (a fluorescent DNA probe), an increase in the fluorescence of intracellular DNA-bound ethidium bromide is observed. The increase in fluorescence can be used as a measure of P2X7 receptor activation and therefore to quantify the effect of a compound on the P2X7 receptor.
In this manner, each of the title compounds of the Examples was tested for antagonist activity at the P2X7 receptor. Thus, the test was performed in 96-well flat bottomed microtitre plates, the wells being filled with 250 μl of test solution comprising 200 μl of a suspension of THP-1 cells (2.5×10^6 cells/ml) containing 10^−4M ethidium bromide, 25 μl of a high potassium buffer solution containing 10^−5M bbATP, and 25 μl of the high potassium buffer solution containing 3×10^−5M test compound. The plate was covered with aplastics sheet and incubated at 37° C. for one hour. The plate was then read in a Perkin-Elmer fluorescent plate reader, excitation 520 nm, emission 595 nm, slit widths: Ex 15 nm, Em 20 nm. For the purposes of comparison, bbATP (a P2X7 receptor agonist) and pyridoxal 5-phosphate (a P2X7 receptor antagonist) were used separately in the test as controls. From the readings obtained, a pIC50 figure was calculated for each test compound, this figure being the negative logarithm of the concentration of test compound necessary to reduce the bbATP agonist activity by 50%.

| IC50 | Compound |
| --- | --- |
| 35.5 nM | CNCCCN(C)c1ccc2c(C(=O)NCC34CC5CC(CC(C5)C3)C4)c(Cl)ccc2n1 [Example 208, N-(1-Adamantylmethyl)-6-chloro-2-{methyl[3-(methylamino)propyl]amino}quinoline-5-carboxamide] |
| 17.8 nM | Cc1ccc2nc(CCNCCCO)ccc2c1NC(=O)CC12CC3CC(CC(C3)C1)C2 [Example 205, 2-(1-Adamantyl)-N-(2-{2-[(3-hydroxypropyl)amino]ethyl}-6-methylquinolin-5-yl)acetamide Dihydrochloride] |
